What was measured:
HIV-1/LASV pseudovirus = assay: microbe, parasite or virus in culture; assay type: cell-based; details: for inhibition at 10 µM: Human immunodeficiency virus 1, A549, 48 h, read-out: Inhibition HIV-1/LASV; for Inhibition HIV/LASV: 10 µM
HIV-1/EBOV pseudovirus [1] = assay: microbe, parasite or virus in culture; details: Zaire ebolavirus, A549, read-out: IC50 (anti-HIV-1/EBOV)
HIV-1/EBOV pseudovirus [2] = details: for Inhibition HIV/EBOV: 10 µM
HIV-1/EBOV pseudovirus [3] = assay: organism not typed; details: A549, 48 h, read-out: Inhibition HIV-1/EBOV
HIV-1/H5N1 pseudovirus = assay: organism not typed; assay type: cell-based, influenza A virus A/Goose/Qinghai/59/05 (H5N1); details: for inhibition at 10 µM: A549, 48 h, read-out: Inhibition HIV-1/H5N1; for Inhibition HIV/H5N1: 10 µM
in vitro = details: human
A549 cells = details: 10 µM

| SMILES | inhibition at 10 µM (HIV-1/LASV pseudovirus) [%] | IC50 (HIV-1/EBOV pseudovirus [1]) [µM] | SI (CC50/IC50) (HIV-1/EBOV pseudovirus [2]) | inhibition at 10 µM (HIV-1/EBOV pseudovirus [3]) [%] | inhibition at 10 µM (HIV-1/H5N1 pseudovirus) [%] | CC50 (in vitro) [µM] | viability at 10 µM (in vitro) [%] | Inhibition HIV/LASV (HIV-1/LASV pseudovirus) [%] | Inhibition HIV/EBOV (HIV-1/EBOV pseudovirus [2]) [%] | Inhibition HIV/H5N1 (HIV-1/H5N1 pseudovirus) [%] | Cell Viability (A549 cells) [%] |
| --- | --- | --- | --- | --- | --- | --- | --- | --- | --- | --- | --- |
| COc1nc2ccc(Br)cc2cc1C(O)(CCc1ccccc1)c1ccccc1CN(C)C (stereo not drawn) [SYL1654] | 18.8 | 4.98 | 44.7 | 84.8 | 8.04 | 222 | 94.7 |  |  |  |  |
| COC1=Nc2ccccc2C(C2(c3ccccc3)CCN(C)CC2)C1C(=O)c1ccccc1 (stereo not drawn) [SYL1660] | -26.6 | 2.58 | 71.6 | 97.5 | 3.34 | 185 | 106 |  |  |  |  |
| Brc1ccc2nc(OCc3cccc4ccccc34)c(-c3cnn(C4CCCCO4)c3)cc2c1 (stereo not drawn) [SYL1658] | 19.2 | 8.65 | 12.7 | 77.4 | 36.9 | 110 | 72.7 |  |  |  |  |
| Brc1ccc2nc(OCc3cccc4ccccc34)c(-c3ccc(CNC45CC6CC(CC(C6)C4)C5)cc3)cc2c1 [SYL1683] | 26.3 | 2.93 | 80.3 | 95.7 | 21.7 | 235 | 104 |  |  |  |  |
| Brc1ccc2nc(Oc3cccc4ccccc34)c(-c3ccccc3)cc2c1 [SYL1653] |  |  |  |  |  |  |  | 87.04 | 99.85 | 64.36 | 82.57 |
| COc1nc2ccc(Br)cc2cc1-c1ccc(CN(C)C)cc1 [SYL1689] |  |  |  |  |  |  |  | 88.23 | 99.94 | 97.51 | 78.79 |
| C[N+](C)(C)Cc1ccc(-c2cc3cc(Br)ccc3nc2OCc2cccc3ccccc23)cc1.[I-] [SYL1685] |  |  |  |  |  |  |  | 93.29 | 99.90 | 65.25 | 103.42 |
| CN(C)Cc1cccc(-c2cc3ccccc3nc2Oc2cccc3ccccc23)c1 [SYL1637] |  |  |  |  |  |  |  | 81.65 | 99.81 | 97.92 | 80.11 |
| COc1nc2ccc(Br)cc2cc1C(c1ccccc1)C1(OC(=O)c2ccccc2)CCN(C)CC1 (stereo not drawn) [SYL1645] |  |  |  |  |  |  |  | 86.68 | 99.92 | 45.37 | 82.47 |
| COc1nc2ccc(Br)cc2cc1C(c1ccccc1)C1(O)CCN(C)CC1 (stereo not drawn) [SYL1636] |  |  |  |  |  |  |  | 98.04 | 99.39 | 97.70 | 4.08 |
| COc1nc2ccccc2cc1C(c1ccccc1)n1c(=O)n(CCN(C)C)c2ccccc21 (stereo not drawn) [SYL1624] |  |  |  |  |  |  |  | 85.88 | 99.82 | 53.54 | 86.63 |
| CN(C)Cc1ccc(-c2cc3cc(Br)ccc3nc2OCc2c(F)cccc2F)cc1 [SYL1693] |  |  |  |  |  |  |  | 99.04 | 99.59 | 97.66 | 3.19 |
| COc1nc2ccccc2cc1C(Nc1ccccc1N1CCN(C)C1=O)c1ccccc1 (stereo not drawn) [SYL1662] |  |  |  |  |  |  |  | 89.05 | 99.56 | 68.52 | 89.06 |
| Brc1ccc2nc(OCc3cccc4ccccc34)c(-c3ccc(CN4CCOCC4)cc3)cc2c1 [SYL1708] |  |  |  |  |  |  |  | 82.96 | 98.58 | 18.60 | 80.29 |
| CN(C)Cc1ccccc1C(O)c1cc2cc(Br)ccc2nc1OCc1cccc2ccccc12 (stereo not drawn) [SYL1652] |  |  |  |  |  |  |  | 97.16 | 99.94 | 98.16 | 61.30 |
| COc1nc2ccccc2cc1C(O)(Cc1cccc(F)c1)c1ccccc1 (stereo not drawn) [SYL1651] |  |  |  |  |  |  |  | 89.23 | 99.95 | 30.01 | 79.56 |
| CN1CCC(c2ccccc2)(C(O)(c2ccccc2)c2ccc3ccccc3c2)CC1 (stereo not drawn) [SYL1644] |  |  |  |  |  |  |  | 92.36 | 99.92 | 97.63 | 78.35 |
| COc1cccc(COc2nc3ccc(Br)cc3cc2-c2cccc(CN(C)C)c2)c1 [SYL1657] | 25.8 | 3.56 | 60.3 | 89.2 | 0.16 | 215 | 93.9 |  |  |  |  |
| COc1nc2ccccc2cc1C(O)(Cc1cccc(F)c1)c1ccccc1CN(C)C (stereo not drawn) [SYL1640] | -15.1 | 2.96 | 64.3 | 79.1 | -1.97 | 190 | 97.6 |  |  |  |  |
| COc1nc2ccccc2cc1C(Nc1ccccc1NCCN(C)C)c1ccccc1 (stereo not drawn) [SYL1621] |  |  |  |  |  |  |  | 99.14 | 99.90 | 97.96 | 52.36 |

| SMILES | inhibition at 10 µM (HIV-1/LASV pseudovirus) [%] | IC50 (HIV-1/EBOV pseudovirus [1]) [µM] | SI (CC50/IC50) (HIV-1/EBOV pseudovirus [2]) | inhibition at 10 µM (HIV-1/EBOV pseudovirus [3]) [%] | inhibition at 10 µM (HIV-1/H5N1 pseudovirus) [%] | CC50 (in vitro) [µM] | viability at 10 µM (in vitro) [%] | Inhibition HIV/LASV (HIV-1/LASV pseudovirus) [%] | Inhibition HIV/EBOV (HIV-1/EBOV pseudovirus [2]) [%] | Inhibition HIV/H5N1 (HIV-1/H5N1 pseudovirus) [%] | Cell Viability (A549 cells) [%] |
| --- | --- | --- | --- | --- | --- | --- | --- | --- | --- | --- | --- |
| CN(C)C(=O)Cc1ccc(-c2cc3cc(Br)ccc3nc2OCc2cccc3ccccc23)cc1 [SYL1677] |  |  |  |  |  |  |  | 29.51 | 90.04 | 15.95 | 58.71 |
| CN(C)Cc1ccc(-c2cc3cc(Br)ccc3nc2Oc2ccc(OCc3ccccc3)cc2)cc1 [SYL1698] |  |  |  |  |  |  |  | 98.80 | 99.64 | 97.44 | 107.16 |
| CN(C)Cc1ccc(-c2cc3cc(Br)ccc3nc2-n2ccnc2)cc1 [SYL1711] | 25.5 | 4.11 | 58.9 | 98.7 | 38.3 | 242 | 90.7 |  |  |  |  |
| COc1ccc(COc2nc3ccc(Br)cc3cc2-c2ccc(CN(C)C)cc2)cc1 [SYL1706] |  |  |  |  |  |  |  | 87.40 | 99.20 | 54.58 | 82.99 |
| CN(C)CCNc1nc2ccc(Br)cc2cc1-c1ccc(CN(C)C)cc1 [SYL1721] |  |  |  |  |  |  |  | 99.50 | 99.63 | 98.20 | 1.26 |
| COc1ccc(CC(O)(c2ccccc2CN(C)C)c2cc3cc(Br)ccc3nc2OC)cc1 (stereo not drawn) [SYL1655] | 28.9 | 2.65 | 49.9 | 90.3 | -17.2 | 132 | 95.3 |  |  |  |  |
| CN(C)Cc1ccc(-c2cc3cc(Br)ccc3nc2OCc2cccc3ccccc23)cc1 [SYL1665] |  |  |  |  |  |  |  | 88.72 | 99.92 | 84.24 | 82.87 |
| CN(C)Cc1ccc(-c2cc3cc(Br)ccc3nc2SCc2ccccc2)cc1 [SYL1699] |  |  |  |  |  |  |  | 93.73 | 99.94 | 94.56 | 105.32 |
| CN(C)Cc1ccc(-c2cc3cc(Br)ccc3nc2N2CCCCC2)cc1 [SYL1714] |  |  |  |  |  |  |  | 51.47 | 98.67 | 83.36 | 91.09 |
| COc1nc2ccccc2cc1C(c1ccccc1)C(O)(CC(=O)N(C)C)c1cccc2ccccc12 (stereo not drawn) [SYL1642] | 35 | 5.21 | 29.2 | 92.2 | 14.1 | 152 | 72.3 |  |  |  |  |
| CN(C)Cc1ccc(-c2cc3cc(Br)ccc3nc2OCc2cccc3ccccc23)cc1F [SYL1678] |  |  |  |  |  |  |  | 97.25 | 99.38 | 93.90 | 122.25 |
| CN1CCC(c2ccccc2)(C(O)(c2ccccc2)c2ccccc2)CC1 [SYL1661] |  |  |  |  |  |  |  | 72.11 | 99.91 | 5.09 | 77.89 |
| COc1nc2ccccc2cc1C(c1ccccc1)n1c(=O)n(CCCN(C)C)c2ccccc21 (stereo not drawn) [SYL1625] |  |  |  |  |  |  |  | 87.77 | 99.90 | -0.36 | 86.95 |
| CN(C)Cc1cccc(-c2cc3cc(Br)ccc3nc2OCc2cccc(F)c2)c1 [SYL1666] |  |  |  |  |  |  |  | 91.03 | 99.92 | 87.06 | 81.28 |
| CN(C)CCc1cccc(-c2cc3cc(Br)ccc3nc2OCc2cccc3ccccc23)c1 [SYL1643] |  |  |  |  |  |  |  | 83.87 | 99.82 | 72.74 | 85.39 |
| CN(C)Cc1ccc(-c2cc3cc(Br)ccc3nc2OCc2cccc3ccccc23)c(F)c1 [SYL1682] |  |  |  |  |  |  |  | 94.69 | 99.91 | 78.74 | 84.09 |
| CN(C)Cc1ccc(-c2cc3cc(Br)ccc3nc2OCc2ccc(-c3ccccc3)cc2)cc1 [SYL1690] |  |  |  |  |  |  |  | 86.95 | 99.85 | 98.15 | 80.30 |
| CC(=NOCCN(C)C)c1cc2ccccc2nc1Oc1cccc2ccccc12 [SYL1626] |  |  |  |  |  |  |  | 85.39 | 99.66 | 44.19 | 86.91 |
| COc1nc2ccc(Br)cc2cc1C(c1ccccc1)N(CCN(C)C)c1cccc2ccccc12 (stereo not drawn) [SYL1623] |  |  |  |  |  |  |  | 15.39 | 97.68 | 105.28 | 87.19 |
